Columns and labels:
[1] = test system: respiratory syncytial virus (RSV); test: RSV replication (RSV NS1 copy numbers) in 16HBE lung epithelial cells (Example 42); format: cell-based; conditions: RSV MOI 1, FIGS. 13-15
Procedure: Specifically, on Day −1, 16HBE cell monolayers are seeded in sufficient numbers to reach 95-100% confluence in 24 well places by Day 0. On day 0, either 2′FL (in concentrations of 1 μg/mL, 5 μg/mL, 10 μg/mL, 50 μg/mL, 100 μg/mL, 500 μg/mL, and 1000 μg/mL), LNnT (in concentrations of 10 μg/mL, 100 μg/mL, or 1000 μg/mL), or 3′SL (in concentrations of 5 μg/mL, 10 μg/mL, 50 μg/mL, 100 μg/mL, 500 μg/mL, and 1000 μg/mL) is added and incubated for approximately 24 hours at 37° C. in 5% CO2. On day 1, the cell supernatants are removed and the monolayers are incubated with medium alone or medium plus Respiratory Syncytial Virus (RSV) for approximately 1 hour at 37° C. in 5% CO2 at a multiplicity of infection (MOI) of 1. After approximately 1 hour, fresh medium alone or containing the appropriate concentrations of 2′FL 3′SL, or LNnT is added to the appropriate wells, and the cells are incubated for 48 hours at 37° C. in 5% CO2. On day 3, supernatants and cell lysates are collected separately, aliquotted and stored frozen at −70° C. for later analysis. Cell lysates are analyzed by TaqMan qRTPCR to assess viral replication through measurement of RSV NS1 copy numbers.

[2] = test system: monocyte-derived cytokines; test: Monocyte-derived cytokines in peripheral blood mononuclear cells (Example 39); format: cell-based, human
Procedure: (§1) Specifically, either 3′SL or 6′SL is added, at concentrations of 0.1 mg/mL, 0.2 mg/mL, or 0.5 mg/mL to fresh peripheral blood mononuclear cells and incubated at 37° C. in 5% CO2 to pretreat the cells for approximately 24 hours. LNnT is added, at concentrations of 0.1 mg/mL, 0.2 mg/mL, or 1 mg/mL to fresh peripheral blood mononuclear cells and incubated at 37° C. in 5% CO2 to pretreat the cells for approximately 24 hours. Lactose is included as a carbohydrate control. Matched endotoxin unit concentration controls are included to allow differentiation of ingredient effects from inherent low levels of endotoxin. Some variables are then incubated with RSV at a multiplicity of infection (MOI) of 0.1 for approximately 1 hour at 37° C. in 5% in CO2. Uninfected control variables are incubated with medium for approximately 1 hour at 37° C. in 5% CO2. After approximately one hour, fresh medium alone, or fresh medium containing the appropriate concentration of 3′SL, 6′SL, LNnT, lactose, or endotoxin is added to the appropriate tubes and the cells are incubated for 48 hours at 37° C. in 5% CO2. Supernatants are collected at 24 and 48 hours post-infection.
(§2) Cytokines are measured in supernatants for each variable at 24 and 48 hours to assess the effects of HMOs on the early immune response to RSV. Cytokines are measured using custom Bio-Plex Human cytokine kits from Bio-Rad. Results for interferon-inducible protein 10 (IP-10, also known as CXCL 10) are shown in FIGS. 3 and 4 for 3′SL and 6′SL, and in FIGS. 5 and 6 for LNnT. IP-10 is a CXC chemokine that attracts, binds to and activates the CXCR3 receptor on natural killer cells and memory T cells. IP-10 is expressed by monocytes and a number of other cells, and is induced by interferon. A positive correlation exists between RSV clinical disease severity in children (as measured by: length of hospital stay, fever, and number of days supplemental O2 is required) and serum IP-10. Therefore, a decrease in IP-10 signals a decrease in severity of RSV disease experienced.

[3] = test system: H1N1 influenza A virus (IAV); test: H1N1 influenza A virus replication (IAV M gene copy numbers) in 16HBE cells (Example 43); format: cell-based; conditions: 16HBE lung epithelial cells; MOI 0.01; FIG. 16
interleukin 10 (IL-10) [4] = test: IL-10 in peripheral blood mononuclear cells with or without RSV (Example 39); format: cell-based, human; conditions: in the presence or absence of RSV; FIGS. 7-10
Procedure: as §1, with “After approximately one hour, fresh medium alone, or fresh medium containing the appropriate concentration of 3′SL, 6′SL, LNnT, lactose, or endotoxin is added to the appropriate tubes and the cells are incubated for 48 hours at 37° C. in 5% CO2. Supernatants are collected at 24 and 48 hours post-infection.” left out
Cytokines are measured in supernatants for each variable at 24 and 48 hours to assess the effects of HMOs on the early immune response to RSV. Cytokines are measured using custom Bio-Plex Human cytokine kits from Bio-Rad. […] A positive correlation exists between RSV clinical disease severity in children (as measured by: length of hospital stay, fever, and number of days supplemental O2 is required) and serum IP-10. […]

[5] = test system: interferon-inducible protein 10 (IP-10); test: IP-10 in RSV-infected peripheral blood mononuclear cells (Example 39); format: cell-based, human; conditions: for IP-10 level compared with uninfected controls / IP-10 in virus-infected variables: FIGS. 3-6; for IP-10 in virus-infected variables: both donors, 24 hour pretreatment, 0.1-0.5 mg/mL (LNnT 0.1-1 mg/mL); for reduction of inflammation caused by RSV: pretreatment for 24 hours, measured by decrease in IP-10
Procedure: as §1, §2

interleukin 10 (IL-10) [6] = test: IL-10 in PBMCs in the presence or absence of RSV (Example 45); format: cell-based, human; conditions: in the presence or absence of RSV (MOI 0.1); for IL-10 response, Donor A and Donor E: 0.1-2.0 mg/mL, FIGS. 20A, 20B; for IL-10 response, Donor B and Donor E: FIGS. 19A, 19B
Procedure: Specifically, 3′SL and 6′SL are added individually at concentrations of 0.1 mg/mL, 0.2 mg/mL, or 0.5 mg/mL or in combination (Combo 1=1 part 3′SL to 1 part 6′SL; and Combo 2=1 part 3′SL to 2 parts 6′SL), at total concentrations of 0.2 mg/mL, 0.4 mg/mL, or 1.0 mg/mL to fresh PBMCs and incubated at 37° C. in 5% CO2 to pretreat the cells for approximately 24 hours. In a separate experiment, LNnT and 2′FL are added individually at concentrations of 0.1 mg/mL, 0.2 mg/mL, 1.0 mg/mL or 2.0 mg/mL to fresh PBMCs and incubated at 37° C. in 5% CO2 to pretreat the cells for approximately 24 hours. Lactose is included as a carbohydrate control. Matched endotoxin unit concentration controls are included to allow differentiation of ingredient effects from inherent low levels of endotoxin. After approximately 24 hours, some variables are then incubated with RSV at a multiplicity of infection (MOI) of 0.1 for approximately 1 hour at 37° C. in 5% in CO2. Uninfected control variables are incubated with medium for approximately 1 hour at 37° C. in 5% CO2. After approximately 1 hour, fresh medium alone or containing the appropriate concentrations of LNnT alone, 2′FL alone, 3′SL or 6′SL individually or in combination, lactose alone, or endotoxin alone is added to the appropriate variables, and the PBMCs were incubated for 48 hours at 37° C. in 5% CO2. Supernatants are collected at 24 and 48 hours post-infection. Cytokines are measured in supernatants for each variable at 24 and 48 hours to assess the effects of HMOs on the early immune response to RSV. Cytokines are measured using custom Bio-Plex Human cytokine kits from Bio-Rad.

H1N1 influenza virus [7] = format: cell-based; conditions: at a concentration of 1 mg/mL
[8] = test system: interferon-inducible protein 10 (IP-10); test: IP-10 in RSV-infected PBMCs, 6′SL (Example 44); format: cell-based, human; conditions: 0.1 mg/mL to 1 mg/mL; RSV MOI 1.0; 4 donors; 48 hours; FIG. 18
Procedure: Specifically, 6′SL was added individually at concentrations of 0.1 mg/mL, 0.2 mg/mL, 0.5 mg/mL or 1.0 mg/mL to fresh peripheral blood mononuclear cells (PCMBs) and incubated at 37° C. in 5% CO2 to pretreat the cells for approximately 24 hours. After approximately 24 hours, some variables are then incubated with RSV at a multiplicity of infection (MOI) of 1.0 for approximately 1 hour at 37° C. in 5% in CO2. Uninfected control variables are incubated with medium for approximately 1 hour at 37° C. in 5% CO2. After approximately 1 hour, fresh medium alone or containing the appropriate concentrations of 6′SL is added to the appropriate variables, and the PBMCs are incubated for 48 hours at 37° C. in 5% CO2. Supernatants are collected at 48 hours post-infection. Cytokines are measured in supernatants for each variable at 48 hours to assess the effects of HMOs on the early immune response to RSV.
Interferon-inducible Protein 10 (IP-10, also known as CXCL10) is a CXC chemokine that attracts, binds to and activates the CXCR3 receptor on Natural Killer Cells and Memory T cells. IP-10 is expressed by monocytes and a number of other cells, and is induced by interferon. A positive correlation exists between RSV clinical disease severity in children (as measured by: length of hospital stay, fever, and number of days supplemental O2 was required) and serum IP-10. […]

[9] = test system: H1N1 influenza A virus (IAV); test: H1N1 influenza A virus replication (IAV M gene copy numbers) in Calu3 cells (Example 43); format: cell-based; conditions: Calu3 lung epithelial cells; MOI 0.01; FIG. 17
H1N1 influenza virus [10] = format: cell-based; conditions: 10 mg/mL; MDCK cells; FIG. 1
[11] = in the presence or absence of the virus

SMILES	concentrations that decrease viral load or inhibit RSV replication (RSV NS1 copies) [1] [µg/mL]	production of monocyte-derived cytokines (IL-10, MIP-1β, Interferon-γ, IL-8, IL-1α, IL-1β, IL-1ra) [2, 11]	concentrations that decrease viral load or inhibit IAV replication (IAV M gene copies) [3] [µg/mL]	IL-10 concentration (interleukin 10 (IL-10) [4])	IP-10 level compared with uninfected controls ([5]; RSV MOI 0.1)	IP-10 in virus-infected variables ([5]; RSV MOI 0.1)	reduction of inflammation caused by RSV [5]	IL-10 response, Donor A and Donor E (interleukin 10 (IL-10) [6])	anti-viral activity against H1N1 influenza virus (H1N1 influenza virus [7])	production of monocyte-derived cytokines (MIP-1β, Interferon-γ, IL-8, IL-1ra) [2, 11]	RSV-induced IP-10, Donor B ([5]; RSV MOI 0.1, Donor B)	RSV-induced IP-10, Donor E ([5]; RSV MOI 0.1, Donor E)	IL-10 response, Donor B and Donor E (interleukin 10 (IL-10) [6])	IP-10 in RSV infected PBMCs [8]	production of monocyte-derived cytokines (IL-10, MIP-1β, Interferon-γ, IL-8, IL-1α, IL-1β, IL-1ra) ([2]; in the absence of the virus)	concentrations that decrease viral load or inhibit IAV replication (IAV M gene copies) [9] [µg/mL]	inhibition of virus infectivity (H1N1 influenza virus [10])
CC(=O)N[C@H]1[C@H](O[C@H]2[C@@H](O)[C@@H](CO)O[C@@H](O[C@H]3[C@H](O)[C@@H](O)C(O)O[C@@H]3CO)[C@@H]2O)O[C@H](CO)[C@@H](O[C@@H]2O[C@H](CO)[C@H](O)[C@H](O)[C@H]2O)[C@@H]1O (mixture of isomers) [LNnT, lacto-N-neotetraose]	≥ 10	immunomodulatory	≥ 1	increases IL-10 concentration in a dose-dependent manner	reduce IP-10 to levels found in uninfected controls	clearly downregulates IP-10	effective in reducing inflammation caused by RSV	clear dose-dependent increase in IL-10 response									
CC(=O)N[C@H]1[C@H]([C@H](O)[C@H](O)CO)O[C@@](O[C@H]2[C@@H](O)[C@@H](CO)O[C@@H](O[C@H]3[C@H](O)[C@@H](O)C(O)O[C@@H]3CO)[C@@H]2O)(C(=O)O)C[C@@H]1O (stereo partly drawn) [3′SL, 3′-sialyllactose]							effective in reducing inflammation caused by RSV		inhibited	immunomodulatory	not effective	downregulates RSV-induced IP-10	do not increase IL-10				
CC(=O)N[C@H]1[C@H]([C@H](O)[C@H](O)CO)O[C@@](OC[C@H]2O[C@@H](O[C@H]3[C@H](O)[C@@H](O)[C@H](O)O[C@@H]3CO)[C@H](O)[C@@H](O)[C@H]2O)(C(=O)O)C[C@@H]1O [6′SL, 6′-sialyllactose]					reduce IP-10 to levels found in uninfected controls	clearly downregulates IP-10	effective in reducing inflammation caused by RSV						clear dose-dependent increase in IL-10 response	dose-dependent downregulation of IP-10	immunomodulatory	≥ 10	approximately 60%
OC[C@H]1O[C@@H](O[C@H]2[C@H](O)[C@@H](O)C(O)O[C@@H]2CO)[C@H](O)[C@@H](O)[C@H]1O (stereo partly drawn) [lactose, Lactose, reference compound]								do not increase IL-10					do not increase IL-10				
